Results reported in patent US20220241249A1, “PHARMACEUTICAL COMPOSITION AND KIT CONTAINING NOVEL PENAM DERIVATIVE OR SALT THEREOF AND ONE OR MORE COMPOUNDS SELECTED FROM beta-LACTAMASE INHIBITORY COMPOUND AND ANTIBACTERIAL COMPOUND OR SALTS THEREOF” (priority 2019, published 2022).
≈ marks a conversion by molar mass, not a printed value. Read-outs that look alike come from different tables or passages of the source.

Key:
Experiment in all cases: Antibacterial activity evaluation test, MIC by broth microdilution (CLSI)
Assay type in all cases: cell-based
[1] = system: CTX-M-15-containing Escherichia coli strain (TK-1747)
Description: (§1) The minimum inhibitory concentration (MIC) was measured according to the Clinical and Laboratory Standards Institute (CLSI) standard method by using the following broth microdilution method.
(§2) As bacteria, a Pseudomonas aeruginosa strain ATCC27853, an AmpC-derepressed Pseudomonas aeruginosa mutant strain (S-3028), an IMP-1-containing Pseudomonas aeruginosa strain (S-2838), a VIM-2-containing Pseudomonas aeruginosa strain (S-3779), a GES-19 and GES-20-containing Pseudomonas aeruginosa strain (S-3759), a CTX-M-15-containing Escherichia coli strain (TK-1747), a KPC-2-containing Klebsiella pneumoniae strain (Y-995), an OXA-48-containing Klebsiella pneumoniae strain (Y-1062), and an NDM-1-containing Klebsiella pneumoniae strain (Y-1007) were used. The test bacterial cells that had been cultured overnight on a Mueller Hinton agar medium were scraped off, suspended at a density equivalent to 0.5 McFarland standard, and diluted 10-fold, thereby obtaining an inoculum. A cation-adjusted Mueller Hinton medium containing a test compound was inoculated with 0.005 mL of the inoculum, and the cells were cultured at 35° C. for 16 to 20 hours. The minimum drug concentration at which the growth of bacteria was not visually observed was defined as MIC (μg/mL).
(§3) An antibacterial activity evaluation test was performed in the same manner as in Test Example 1.

[2] = system: IMP-1-containing Pseudomonas aeruginosa strain (S-2838)
Description: as §1, §2, §3

[3] = system: VIM-2-containing Pseudomonas aeruginosa strain (S-3779)
Description: as §1, §2, §3

[4] = system: Pseudomonas aeruginosa strain ATCC27853
Description: as §1, §2, §3

[5] = system: KPC-2-containing Klebsiella pneumoniae strain (Y-995)
Description: as §1, §2, §3

[6] = system: AmpC-derepressed Pseudomonas aeruginosa mutant strain (S-3028)
Description: as §1, §2, §3

[7] = system: GES-19 and GES-20-containing Pseudomonas aeruginosa strain (S-3759)
Description: as §1, §2, §3

[8] = system: NDM-1-containing Klebsiella pneumoniae strain (Y-1007)
Description: as §1, §2, §3

[9] = system: OXA-48-containing Klebsiella pneumoniae strain (Y-1062)
Description: as §1, §2, §3

[10] = Pseudomonas aeruginosa, ATCC27853

SMILES | MIC ([1]; Escherichia coli) [µg/mL] | MIC ([2]; Pseudomonas aeruginosa) [µg/mL] | MIC ([3]; Pseudomonas aeruginosa) [µg/mL] | MIC ([5]; Klebsiella pneumoniae) [µg/mL] | MIC ([6]; Pseudomonas aeruginosa) [µg/mL] | MIC ([7]; Pseudomonas aeruginosa) [µg/mL] | MIC ([8]; Klebsiella pneumoniae) [µg/mL] | MIC ([9]; Klebsiella pneumoniae) [µg/mL] | MIC [4, 10] [µg/mL] | other results
CC(C)(O/N=C(\C(=O)N[C@@H]1C(=O)N2C[C@@](C(=O)O)(N3CCN(NC(=O)C(=O)N(O)CCNC(=O)c4ccc(O)c(O)c4Cl)C3=O)S[C@H]12)c1csc(N)n1)C(=O)O [Example 104, (3R,5R,6R)-6-((Z)-2-(2-aminothiazol-4-yl)-2-(((2-carboxypropan-2-yl)oxy)imino)acetamido)-3-(3-(2-((2-(2-chloro-3,4-dihydroxybenzamido)ethyl)(hydroxy)amino)-2-oxoacetamido)-2-oxoimidazolidin-1-yl)-7-oxo-4-thia-1-azabicyclo[3.2.0]heptane-3-carboxylic acid] | 1 (≈ 1.19 µM) | 0.5 (≈ 0.593 µM) | 1 (≈ 1.19 µM) | 2 (≈ 2.37 µM) | 2 (≈ 2.37 µM) | 4 (≈ 4.74 µM) | < 0.06 | 2 (≈ 2.37 µM) | – | MIC ([4]; ATCC27853, Pseudomonas aeruginosa ATCC 27853, 35° C., 16 to 20 hours, read-out: MIC): 2 µg/mL (≈ 2.37 µM)
CC(C)(O/N=C(\C(=O)N[C@@H]1C(=O)N2C[C@@](C(=O)O)(N3CCN(NC(=O)C(=O)c4ccc(O)c(O)c4Cl)C3=O)S[C@H]12)c1csc(N)n1)C(=O)O [Example 20, (3R,5R,6R)-6-((Z)-2-(2-aminothiazol-4-yl)-2-(((2-carboxypropan-2-yl)oxy)imino)acetamido)-3-(3-(2-(2-chloro-3,4-dihydroxyphenyl)-2-oxoacetamido)-2-oxoimidazolidin-1-yl)-7-oxo-4-thia-1-azabicyclo[3.2.0]heptane-3-carboxylic acid] | < 0.06 | 0.12 (≈ 0.162 µM) | 0.25 (≈ 0.337 µM) | 0.12 (≈ 0.162 µM) | 0.25 (≈ 0.337 µM) | 0.5 (≈ 0.675 µM) | < 0.06 | 0.5 (≈ 0.675 µM) | 0.5 (≈ 0.675 µM) | –
CC(C)(O/N=C(\C(=O)N[C@@H]1C(=O)N2C[C@@](C(=O)O)(n3nnc(CNC(=O)c4ccc(O)c(O)c4Cl)n3)S[C@H]12)c1csc(N)n1)C(=O)O [Example 141, (3R,5R,6R)-6-((Z)-2-(2-aminothiazol-4-yl)-2-(((2-carboxypropan-2-yl)oxy)imino)acetamido)-3-(5-((2-chloro-3,4-dihydroxybenzamido)methyl)-2H-tetrazol-2-yl)-7-oxo-4-thia-1-azabicyclo[3.2.0]heptane-3-carboxylic acid] | 0.5 (≈ 0.703 µM) | 0.25 (≈ 0.352 µM) | 1 (≈ 1.41 µM) | > 32 | 0.5 (≈ 0.703 µM) | 4 (≈ 5.63 µM) | 0.25 (≈ 0.352 µM) | 1 (≈ 1.41 µM) | 1 (≈ 1.41 µM) | –
CC(C)(O/N=C(\C(=O)NC1C(=O)N2C[C@@](C(=O)O)(N3CCN(NC(=O)C(=O)NCCNC(=O)C(=O)c4ccc(O)c(O)c4Cl)C3=O)S[C@H]12)c1csc(N)n1)C(=O)O (stereo partly drawn) [Example 121, (3R,5R,6R)-6-((Z)-2-(2-aminothiazol-4-yl)-2-(((2-carboxypropan-2-yl)oxy)imino)aceta-mido)-3-(3-(2-((2-(2-(2-chloro-3,4-dihydroxy-phenyl)-2-oxoaceta-mido)ethyl)amino)-2-oxoacetamido)-2-oxo-imidazolidin-1-yl)-7-oxo-4-thia-1-azabicyclo-[3.2.0]heptane-3-carbox-ylic acid] | < 0.06 | 4 (≈ 4.68 µM) | 1 (≈ 1.17 µM) | 0.25 (≈ 0.292 µM) | 2 (≈ 2.34 µM) | 2 (≈ 2.34 µM) | 0.12 (≈ 0.14 µM) | 0.5 (≈ 0.585 µM) | 2 (≈ 2.34 µM) | –
Nc1nc(/C(=N/OC2(C(=O)O)CC2)C(=O)N[C@@H]2C(=O)N3C[C@@](C(=O)O)(N4CCN(NC(=O)CCNC(=O)C(=O)c5ccc(O)c(O)c5Cl)C4=O)S[C@H]23)c(Cl)s1 [Example 107, (3R,5R,6R)-6-((Z)-2-(2-amino-5-chlorothia-zol-4-yl)-2-((1-carboxy-cyclopropoxy)imino)-acetamido)-3-(3-(3-(2-(2-chloro-3,4-dihydroxy-phenyl)-2-oxoaceta-mido)proanamido)-2-oxoimidazolidin-1-yl)-7-oxo-4-thia-1-aza-bicyclo[3.2.0]heptane-3-carboxylic acid] | – | – | – | – | – | – | – | – | – | MIC ([1]; Escherichia coli TK-1747, 35° C., 16 to 20 hours): 0.25 µg/mL (≈ 0.296 µM); MIC ([2]; Pseudomonas aeruginosa S-2838, 35° C., 16 to 20 hours): 0.5 µg/mL (≈ 0.592 µM); MIC ([3]; Pseudomonas aeruginosa S-3779, 35° C., 16 to 20 hours): 0.25 µg/mL (≈ 0.296 µM); MIC ([4]; Pseudomonas aeruginosa ATCC 27853, 35° C., 16 to 20 hours): 0.25 µg/mL (≈ 0.296 µM); MIC ([5]; Klebsiella pneumoniae Y-995, 35° C., 16 to 20 hours): 2 µg/mL (≈ 2.37 µM); MIC ([6]; Pseudomonas aeruginosa S-3028, 35° C., 16 to 20 hours): 2 µg/mL (≈ 2.37 µM); MIC ([7]; Pseudomonas aeruginosa S-3759, 35° C., 16 to 20 hours): 0.5 µg/mL (≈ 0.592 µM); MIC ([8]; Klebsiella pneumoniae Y-1007, 35° C., 16 to 20 hours): <0.06 µg/mL; MIC ([9]; Klebsiella pneumoniae Y-1062, 35° C., 16 to 20 hours): 0.25 µg/mL (≈ 0.296 µM)
CC(C)(O/N=C(\C(=O)N[C@@H]1C(=O)N2C[C@@](C(=O)O)(N3CCCN(NC(=O)C(=O)c4ccc(O)c(O)c4Cl)C3=O)S[C@H]12)c1csc(N)n1)C(=O)O [Example 86, (3R,5R,6R)-6-((Z)-2-(2-aminothiazol-4-yl)-2-(((2-carboxypropan-2-yl)oxy)imino)acetamido)-3-(3(-2-(2-chloro-3,4-dihydroxyphenyl)-2-oxoacetamido)-2-oxotetrahydropyrimidin-1(2H)-yl)-7-oxo-4-thia-1-azabicyclo[3.2.0]heptane-3-carboxylic acid] | 1 (≈ 1.32 µM) | 1 (≈ 1.32 µM) | 2 (≈ 2.65 µM) | 0.5 (≈ 0.662 µM) | 1 (≈ 1.32 µM) | 2 (≈ 2.65 µM) | < 0.06 | 1 (≈ 1.32 µM) | 4 (≈ 5.3 µM) | –
CC(C)(O/N=C(\C(=O)NC1C(=O)N2C[C@@](C(=O)O)(N3CCC[C@H](NC(=O)C(=O)c4ccc(O)c(O)c4Cl)C3=O)S[C@H]12)c1csc(N)n1)C(=O)O (stereo partly drawn) [Example 156] | – | – | – | – | – | – | – | – | – | Antibacterial activity (MIC) Escherichia coli TK-1747 ([1]; Escherichia coli TK-1747): 0.12 µg/mL; Antibacterial activity (MIC) Pseudomonas aeruginosa S-2838 ([2]; Pseudomonas aeruginosa S-2838): 1 µg/mL; Antibacterial activity (MIC) Pseudomonas aeruginosa S-3779 ([3]; Pseudomonas aeruginosa S-3779): 1 µg/mL; Antibacterial activity (MIC) Pseudomonas aeruginosa ATCC 27853 [4, 10]: 2 µg/mL; Antibacterial activity (MIC) Klebsiella pneumoniae Y-995 ([5]; Klebsiella pneumoniae Y-995): 0.12 µg/mL; Antibacterial activity (MIC) Pseudomonas aeruginosa S-3028 ([6]; Pseudomonas aeruginosa S-3028): 0.5 µg/mL; Antibacterial activity (MIC) Pseudomonas aeruginosa S-3759 ([7]; Pseudomonas aeruginosa S-3759): 2 µg/mL; Antibacterial activity (MIC) Klebsiella pneumoniae Y-1007 ([8]; Klebsiella pneumoniae Y-1007): < 0.06 µg/mL; Antibacterial activity (MIC) Klebsiella pneumoniae Y-1062 ([9]; Klebsiella pneumoniae Y-1062): 0.5 µg/mL
Nc1nc(/C(=N/OC2(C(=O)O)CCC2)C(=O)N[C@@H]2C(=O)N3C[C@@](C(=O)O)(N4CCN(NC(=O)C(=O)c5ccc(O)c(O)c5Cl)C4=O)S[C@H]23)c(Cl)s1 [Example 78, (3R,5R,6R)-6-((Z)-2-(2-amino-5-chlorothiazol-4-yl)-2-((1-carboxycyclobutoxy)imino)acetamido)-3-(3-(2-(2-chloro-3,4-dihydroxyphenyl)-2-oxoacetamido)-2-oxoimidazolidin-1-yl)-7-oxo-4-thia-1-azabicyclo[3.2.0]heptane-3-carboxylic acid] | 0.25 (≈ 0.317 µM) | 1 (≈ 1.27 µM) | 0.25 (≈ 0.317 µM) | 0.25 (≈ 0.317 µM) | < 0.06 | 1 (≈ 1.27 µM) | < 0.06 | 0.25 (≈ 0.317 µM) | 0.5 (≈ 0.635 µM) | –
Nc1nc(/C(=N/OC2(C(=O)O)CC2)C(=O)N[C@@H]2C(=O)N3C[C@@](C(=O)O)(N4CCN(NC(=O)C(=O)c5ccc(O)c(O)c5Cl)C4=O)S[C@H]23)cs1 [Example 21, (3R,5R,6R)-6-((Z)-2-(2-aminothiazol-4-yl)-2-((1-carboxycyclopropoxy)imino)acetamido)-3-(3-(2-(2-chloro-3,4-dihydroxyphenyl)-2-oxoacetamido)-2-oxoimidazolidin-1-yl)-7-oxo-4-thia-1-azabicyclo[3.2.0]heptane-3-carboxylic acid] | 0.12 (≈ 0.162 µM) | 2 (≈ 2.71 µM) | 0.5 (≈ 0.676 µM) | < 0.06 | 4 (≈ 5.41 µM) | 1 (≈ 1.35 µM) | < 0.06 | 2 (≈ 2.71 µM) | 0.25 (≈ 0.338 µM) | –
C[C@H]1CN(/N=C/CNC(=O)c2ccc(O)c(O)c2Cl)C(=O)N1[C@]1(C(=O)O)CN2C(=O)C(NC(=O)/C(=N\OC(C)(C)C(=O)O)c3csc(N)n3)[C@H]2S1 (stereo partly drawn) [Example 45] | 0.12 (≈ 0.156 µM) | 2 (≈ 2.6 µM) | 1 (≈ 1.3 µM) | 0.25 (≈ 0.325 µM) | 2 (≈ 2.6 µM) | 2 (≈ 2.6 µM) | < 0.06 | 1 (≈ 1.3 µM) | 1 (≈ 1.3 µM) | –
